Source: PMC12040169 (PLOS Biology, 2025)

assay: in vitro; conditions: human, hela cells

In the case of `O=P(O)(O)/C=C(\Cl)c1ccccc1` [CBK261019], the viability at 28.5 h, 10 µM is reported as 97.8%.

same assay, conditions: human, hela cells, % viability

First: Cc1cc(N2CCC(N3CCN(C)CC3)CC2)nc(N)n1 [CBK167964]
Second: Nc1nc(C2CC(O)C2)cc(N2CCC(Oc3ccccc3Cl)CC2)n1 (stereo not drawn) [CBK307392]
The viability at 28.5 h, 10 µM of the first is higher: 94.3% for the first, 93.2% for the second.

First: CN1CCC(N(C)S(=O)(=O)c2ccc(C(C)(C)C)cc2)C1 (stereo not drawn) [CBK059036T]
Second: CC(C)(C)c1ccc2c(c1)C(CCCCN1CCCC1)(c1ccccc1)C(=O)O2 (stereo not drawn) [CBK017654C]
The viability at 28.5 h, 10 µM of the first is lower: 98.5% for the first, 102% for the second.

First: CC1=NN(C(=O)NS(=O)(=O)c2ccccc2Cl)C(C)(C)C1 [CBK018947]
Second: CCS(=O)(=O)N1CCC(NC(=O)NC(C)c2ccccc2Cl)CC1 (stereo not drawn) [CBK242304]
The viability at 28.5 h, 10 µM of the first is higher: 120% for the first, 95.3% for the second.

`O=C(NCc1c(F)cccc1F)c1ccc2nc[nH]c2c1` [CBK153315] and `COc1ccc2cc(CNc3ccc(F)c(F)c3)c(=O)[nH]c2c1` [CBK281934] are the same in viability at 28.5 h, 10 µM: 83% for the first, 83% for the second.

Compared with `CCCCCOc1ccc(Nc2cc(-c3ccco3)ncn2)cc1` [CBK090892], `CCn1c2ccccc2c2cc(Nc3cc(-c4cccc5ccccc45)ncn3)ccc21` [CBK090834] is lower in viability at 28.5 h, 10 µM: 92.6% for the first, 50.6% for the second.

First: COc1ccc(C(=O)Nc2cncc(OC3CCNCC3)n2)cc1 [CBK036370T]
Second: COc1ccc(/C=C(\C)C(=O)Nc2c(OC)cc(F)cc2OC2CCNCC2)cc1OC [CBK050353T]
The viability at 28.5 h, 10 µM of the first is lower: 94.4% for the first, 98.6% for the second.

Going from `CCOC1C(OCC)N(S(=O)(=O)c2ccc(C)cc2)CCN1S(=O)(=O)c1ccc(C)cc1` (stereo not drawn) [CBK261832] to `CCCC(=O)c1ccc(S(=O)(=O)N2CCCN(Cc3cccc4cccnc34)CC2)cc1` [CBK062909], the viability at 28.5 h, 10 µM falls from 116% to 93%.

Going from `c1coc(-c2nccnc2NCCc2c[nH]c3ccccc23)c1` [CBK037316] to `COCCNc1nccnc1-c1ccccc1CO` [CBK038010], the viability at 28.5 h, 10 µM rises from 95.2% to 108%.

Going from `COc1ncc(-c2nccnc2NCc2ccc(F)cc2)c(OC)n1` [CBK037668] to `COc1ccc(Cn2nc(NC(C)=O)c3ccccc32)cc1` [CBK048200], the viability at 28.5 h, 10 µM rises from 96.7% to 109%.

First: Cc1ccc(/C=C/C(=O)O)cc1S(=O)(=O)N1CCCc2ccccc21 [CBK264425]
Second: CC(=O)N1CCCC(c2nc(-c3ccncc3)ncc2-c2ccccc2)C1 (stereo not drawn) [CBK291110]
The viability at 28.5 h, 10 µM of the first is higher: 101% for the first, 82.2% for the second.

First: Cc1cc(C)n(C(C)CC(=O)N2CCCCC2CCN2CCCC2)n1 (stereo not drawn) [CBK282078]
Second: CCOCCCC(=O)N1CCN(Cc2nnc3n2CCCCC3)CC1 [CBK305298]
The viability at 28.5 h, 10 µM of the first is higher: 106% for the first, 90.9% for the second.

Compared with `Cc1cc2ccccc2n2c(=O)n(CC(=O)NC3CCCC3)nc12` [CBK283884], `Cc1cnn(C2CCCN(C(=O)CC3C(=O)Nc4ccccc43)C2)c1` (stereo not drawn) [CBK304930] is higher in viability at 28.5 h, 10 µM: 79.7% for the first, 81.7% for the second.

Compared with `COc1ccc(OC(=O)C2CCN(C(=O)CC(C)C)CC2)c([N+](=O)[O-])c1` [CBK154770], `Cc1ccc(OCC(=O)N2CCN(C(=O)c3cccs3)CC2)c([N+](=O)[O-])n1` [CBK297152] is lower in viability at 28.5 h, 10 µM: 97.4% for the first, 94.4% for the second.

Going from `O=C(CN(c1ccccc1)S(=O)(=O)c1ccccc1[N+](=O)[O-])Nc1ccc(C(F)(F)F)cc1` [CBK267137] to `O=C(CSc1ccccc1)Nc1cccc(Oc2ccc3c(c2)C(=O)NC3=O)c1` [CBK266500], the viability at 28.5 h, 10 µM rises from 64.6% to 113%.

First: COc1ccc(CC(=O)NCC(c2cccs2)N2CCOCC2)cc1F (stereo not drawn) [CBK305618]
Second: COc1ccc(C(NC(=O)c2ccc(C(C)N3CCOCC3)o2)c2ccccc2)cc1 (stereo not drawn) [CBK285748]
The viability at 28.5 h, 10 µM of the first is lower: 99.5% for the first, 112% for the second.

Going from `CCCCCc1nc(N)c(-c2cccc(Br)c2)c(C#N)c1CCCC` [CBK026574] to `NC(=O)c1cccc(-c2nc(-c3cccs3)cnc2N)c1` [CBK064117], the viability at 28.5 h, 10 µM falls from 118% to 89.7%.

Compared with `CC(=O)N(C)[C@H]1CC[C@]2(CC1)CNC(=O)c1ccccc1O2` [CBK281682], `CCCN(C(=O)CCc1ccc(C)cc1C)C1CCNCC1` [CBK304302C] is higher in viability at 28.5 h, 10 µM: 101% for the first, 109% for the second.

First: CC(C)(C)OC(=O)N1CCN(c2cc(N)ncn2)CC1 [CBK001963]
Second: CCNc1cccnc1N1CCN(CCc2cc(C)c(O)c(C)c2)CC1 [CBK024361C]
The viability at 28.5 h, 10 µM of the first is lower: 101% for the first, 108% for the second.

Going from `c1cc2[nH]ccc2c(N2CCNCC2)n1` [CBK051673C] to `c1ccc2c(c1)OCc1nnc(CCN3CCCCC3)n1-2` [CBK005285], the viability at 28.5 h, 10 µM rises from 90.7% to 95.2%.

Compared with `CNC1(c2nnnn2CCOC(=O)Nc2ccc(Cl)cc2)CCCC1` [CBK266253], `COC(=O)Cc1ccc(NC(=S)N2CCC(C(N)=O)(N3CCCCC3)CC2)cc1` [CBK266101] is lower in viability at 28.5 h, 10 µM: 102% for the first, 97.6% for the second.

Compared with `CC(C)Nc1ncnc2scc(-c3cccs3)c12` [CBK017085], `CC(C)Nc1nc2cc(Cl)c(Cl)cc2nc1OCc1cccnc1` [CBK115743] is higher in viability at 28.5 h, 10 µM: 85.9% for the first, 97.4% for the second.

First: NC(=O)CSc1nnc(NC(=O)c2ccccc2Cl)s1 [CBK287629]
Second: CCOc1ccccc1NC(=O)NC(=O)C1CCN(C(C)c2ccc(Cl)cc2)CC1 (stereo not drawn) [CBK034899]
The viability at 28.5 h, 10 µM of the first is lower: 89.9% for the first, 98.4% for the second.

First: Fc1ccc([C@@H]2COC[C@H]2NCc2ccsc2)cc1 [CBK282598]
Second: Cc1noc(C)c1C(=O)N[C@H]1CO[C@H]2[C@@H]1OC[C@H]2OCc1ccccc1 [CBK289458]
The viability at 28.5 h, 10 µM of the first is higher: 100% for the first, 96.7% for the second.

First: O=C(Nc1scc(-c2ccc(-c3ccccc3)cc2)c1C(=O)O)c1ccco1 [CBK266156]
Second: O=C(Nc1ccc(N2CCN(C(=O)c3ccco3)CC2)cc1)c1cccnc1 [CBK270034]
The viability at 28.5 h, 10 µM of the first is higher: 108% for the first, 102% for the second.

Going from `COc1ccc(-c2ccc3c(c2)C(=O)N2CC[C@H](NC(=O)C4CCCC4)[C@H]2C(=O)N3)cc1` [CBK289330] to `COc1cc(-n2cnc3cc(-c4ccc(Cl)cc4)sc3c2=O)ccc1OCCN1CCCC1` [CBK089844C], the viability at 28.5 h, 10 µM falls from 108% to 40.7%.

Compared with `Cc1cc(OCC(=O)Nc2ccccc2CO)cc(C)c1Br` [CBK265094], `Cc1cc(C)n(C(C)CC(=O)NCc2ccccc2-n2ccnc2)n1` (stereo not drawn) [CBK281518] is lower in viability at 28.5 h, 10 µM: 88.2% for the first, 84.3% for the second.

First: Cc1cc(=O)n2c(C(=O)Nc3cccc(C(=O)O)c3)c(C(=O)Nc3cccc(C)c3C)sc2n1 [CBK297545]
Second: Cc1sc(NC(=O)c2ccc3c(c2)OCCO3)c(C(=O)NCc2cccnc2)c1C [CBK268181]
The viability at 28.5 h, 10 µM of the first is higher: 101% for the first, 90.8% for the second.

Going from `CCc1nc(C2CCCN2c2ncc(C#N)cc2Cl)no1` (stereo not drawn) [CBK305183] to `Cc1nc(C2CCCN(C(=O)c3cccnc3)C2)c2sccn12` (stereo not drawn) [CBK285233], the viability at 28.5 h, 10 µM rises from 91.1% to 93%.

Compared with `O=C(NCc1ccc(Cl)cc1)N1CCCC(CO)C1` (stereo not drawn) [CBK156053], `Clc1ccc(-c2ccc(CNCCCN3CCOCC3)o2)cc1` [CBK269562C] is lower in viability at 28.5 h, 10 µM: 96.6% for the first, 90.5% for the second.

First: O=C(CN1CCCC2(CCN(C(=O)c3ccoc3)C2)C1)Nc1ncccn1 (stereo not drawn) [CBK137140]
Second: CC(=O)N[C@H](C(=O)N1CC[C@@H]2NC(=O)[C@@H](Cc3ccccc3)NC(=O)C3(C/C=C/C[C@@H]2C1)CCOCC3)[C@@H](C)O [CBK292186]
The viability at 28.5 h, 10 µM of the first is higher: 102% for the first, 96.9% for the second.

Compared with `Cc1ccc(-c2nn(CCC#N)cc2C(=O)N2CCCC2)cc1C` [CBK305974], `COc1ccc(-c2cc([C@H]3CN4CC[C@H]3C[C@@H]4CNC(C)=O)n(C)n2)cc1OC` [CBK288757] is lower in viability at 28.5 h, 10 µM: 86.8% for the first, 86.3% for the second.

Compared with `COc1cc(OC)c2c(c1)OCC1CON(C)C21` (stereo not drawn) [CBK011446], `COc1cc2c(cc1OC)CN(Cc1nc3ccccc3[nH]1)CC2` [CBK126390] is lower in viability at 28.5 h, 10 µM: 95.6% for the first, 91% for the second.

Going from `CC(C)(C)C1=Nn2c(nnc2-c2n[nH]c3c2CCC3)SC1` [CBK287894] to `Cc1[nH]c2ccc(F)cc2c1-c1cn2c3c(nnc2n1)CCCC3` [CBK283172], the viability at 28.5 h, 10 µM rises from 87.7% to 92.3%.

Compared with `O=S(=O)(Nc1ccc(-c2nnn[nH]2)cc1)c1ccc(F)c(C(F)(F)F)c1` [CBK154759], `O=C(O)c1cccc(-n2cc(-c3cccc(C(F)(F)F)c3)nn2)c1` [CBK112949] is higher in viability at 28.5 h, 10 µM: 96.9% for the first, 114% for the second.

Going from `Cc1ccc(C#N)c(S(=O)(=O)Nc2cc(N3C[C@@H](C)N[C@@H](C)C3)c3occc3c2)c1` [CBK034756C] to `COc1ccc(C(=O)N(C)C2CCN(C)C2)cc1Nc1cncc(-c2cc3ccccc3[nH]2)n1` (stereo not drawn) [CBK155260T], the viability at 28.5 h, 10 µM rises from 89.7% to 108%.

Compared with `CC(C)(C)c1ccc(-c2ccc3ccc(N)nc3n2)cc1` [CBK061872], `c1ccc(Oc2ccc(Nc3cccc(-c4ccc(N5CCOCC5)cc4)n3)cc2)cc1` [CBK036986] is higher in viability at 28.5 h, 10 µM: 79.3% for the first, 95.4% for the second.

Going from `CN(C(=O)CN)c1nc2c(s1)CC(c1ccccc1)CC2` (stereo not drawn) [CBK304298C] to `CN(C)CCCN1C(=O)C(O)=C(C(=O)c2cccs2)C1c1cccnc1` (stereo not drawn) [CBK264511], the viability at 28.5 h, 10 µM rises from 74.1% to 88.2%.

Compared with `CN(c1nc(-c2cccnc2)cn2ccnc12)C1CCCCC1` [CBK093609], `CCOc1cc(F)ccc1NC(=O)CC1CCN(c2nc(C)cc(C)n2)CC1` [CBK285958] is higher in viability at 28.5 h, 10 µM: 87% for the first, 103% for the second.

First: CC(C)(C)C1=CC2=NC3(CCC3)C3C[C@](O)(CO)[C@@H](O)[C@@H]3N2O1 (stereo partly drawn) [CBK303262]
Second: O=c1ccn([C@H]2C[C@@H](O)[C@@H](CO)O2)c(=O)[nH]1 [CBK201316]
The viability at 28.5 h, 10 µM of the first is lower: 91.1% for the first, 98.3% for the second.

First: Cc1c(NC(=O)CSc2nncn2C)ccc2nsnc12 [CBK269418]
Second: CCOC(=O)C1N(C)C(=O)C(Cc2c(Cl)cccc2Cl)=C(C)N1C (stereo not drawn) [CBK112643]
The viability at 28.5 h, 10 µM of the first is higher: 104% for the first, 94.4% for the second.

First: O=C1NC2=C(C(=O)N(CC3CCCO3)C2)C(c2ccc(F)c(F)c2)N1 (stereo not drawn) [CBK282271]
Second: COc1ccc([C@H]2CN(C(=O)c3ccccc3)[C@@H]3CCN(Cc4ccccc4C)C[C@H]23)cc1 [CBK285583]
The viability at 28.5 h, 10 µM of the first is lower: 98% for the first, 105% for the second.

First: O=C(Nc1ccc2c(c1)OCO2)c1nccnc1-c1ccc(COc2ccccc2)cc1 [CBK050834]
Second: Cc1c(NC(=S)NCCCN2CCOCC2)c(=O)n(-c2ccccc2)n1C [CBK008032]
The viability at 28.5 h, 10 µM of the first is higher: 109% for the first, 90.7% for the second.

First: Cc1ccsc1CNC(=O)OCC1CCN(C)CC1 [CBK200149]
Second: CCOc1ccc(S(=O)(=O)NCCOC)cc1Cl [CBK270251]
The viability at 28.5 h, 10 µM of the first is higher: 96.9% for the first, 91.5% for the second.
